Values joined by “and” are separate entries in the source; they are usually repeats but may differ in a detail not shown here. Equal values may be shown once. Read-outs that look alike come from different tables or passages of the source.
How the values were obtained:
[1] = Clinical observations after intravenous and oral dose administration; type: in vivo, male BALB/c mice; conditions: after IV 1 mg/kg and PO 5 mg/kg single dose
Procedure: (§1) A group of eighteen male mice were divided in to two groups as Group 1 and Group 2 with nine mice in each group. Animals in Group 1 were administered intravenously with Compound 1 solution formulation in 7.5% NMP, 5% Solutol HS-15 and 87.5% normal Saline at a dose of 1 mg/kg. Animals in Group 2 were administered orally with Compound 1 solution formulation in 7.5% NMP, 5% Solutol HS and 87.5% normal Saline at a dose of 5 mg/kg.

HEK293-STF3A cells = test: STF3A assay (Wnt reporter luciferase); type: cell-based; conditions: Homo sapiens, 24 h, 1 day of treatment, read-out: IC50 activities on STF3A cells
Procedure: HEK293-STF cell line was modified from Human embryonic kidney cell line HEK293 transfected with the STF reporter. HEK293-STF3 A cell line was further modified from HEK293-STF cell line to express Wnt3A. This cell line was used to identify compounds that regulate either early or late signalling components of the Wnt pathway. L-Wnt3 A (ATCC, #CRL-2647) cell line was used for providing Wnt3 A conditioned media. The three cell lines were grown in DMEM (Dulbecco's Modified Eagle Medium) with 10% FBS (fetal bovine serum) incubated in 37° C. with 5% CO2.
2×10^4 HEK293-STF3A cells in 75 μl culture media were seeded in each well of white 96 well plates (Greiner #655098) and incubated overnight at 37° C. 25 μl serially diluted compound was added to the cells to give final concentration of 50 μM to 1.5 nM. After 1 day of treatment, 100 μl of Steady-Glo® Luciferase Assay reagent (#E2520, Promega) was added to each well and incubated for 10 minutes at room temperature. Luminescence was measured using Tecan Safire2® plate reader.

[2] = Plasma pharmacokinetics after single intravenous and oral dose; type: in vivo, male BALB/c mice
Procedure: The objective of this study was to investigate the plasma pharmacokinetics of Compound 1 in male BALB/c mice following a single intravenous and oral dose administration. A group of eighteen male mice were divided in to two groups as Group 1 and Group 2 with nine mice in each group.
Animals in Group 1 were administered intravenously with Compound 1 solution formulation in 7.5% NMP, 5% Solutol HS-15 and 87.5% normal Saline at a dose of 1 mg/kg.
Animals in Group 2 were administered orally with Compound 1 solution formulation in 7.5% NMP, 5% Solutol HS-15 and 87.5% normal Saline at a dose of 5 mg/kg.
Blood samples (approximately 60 μL) were collected under light isoflurane anesthesia from retro orbital plexus at predose, 0.08, 0.25, 0.5, 1, 2, 4, 8 and 24 hr (IV) and predose, 0.25, 0.5, 1, 2, 4, 6, 8 and 24 hr (PO). During each sampling point, blood samples were collected in labeled pre-chilled tubes containing K2EDTA (20% K2EDTA solution) as an anticoagulant and protease inhibitor (10 μL of 10× solution/100 μL of blood). Low temperature was maintained till storage of plasma at −70° C. Plasma samples were separated by centrifugation of whole blood and stored below −70° C. until bioanalysis. All samples were processed for analysis by protein precipitation using acetonitrile (ACN) and analyzed with fit-for-purpose LC/MS/MS method (Lower limit of quantitation (LLOQ: 1.02 ng/mL). Pharmacokinetic parameters were calculated using the non-compartmental analysis tool of Phoenix WinNonlin® (Version 6.3). The overall pharmacokinetic parameters are summarized below:
The objective of the study is to determine the plasma pharmacokinetics of Compound 1 in male BALB/c mice following a single intravenous (1 mg/kg) and oral (5 mg/kg) administration in presence of a protease inhibitor.
as §1
The dosing volume administered was 5 mL/kg for intravenous and 10 mL/kg for oral administration.
Blood samples (approximately 60 μL) were collected from retro-orbital plexus of three mice at each time point [predose, 0.08, 0.25, 0.5, 1, 2, 4, 8 and 24 hr (IV) and predose, 0.25, 0.5, 1, 2, 4, 6, 8 and 24 hr (PO)]. During each sampling point, blood samples were collected in labeled pre-chilled tubes containing K2EDTA (20% K2EDTA solution) as an anticoagulant and protease inhibitor (10 μL of 10× solution/100 μL of blood). Low temperature was maintained till storage of plasma at −70° C. Plasma was immediately harvested from the blood by centrifugation at 4000 rpm for 10 min at 4±2° C. and stored below −70° C. until bioanalysis. Preparation of protease inhibitor solution: One tablet of sigmaFAST (Product Code: 58820) was reconstituted into 10 mL of Milli-Q water to prepare 10× solution.
Concentrations of Compound 1 in mouse plasma samples were determined by fit-for-purpose LC-MS/MS method. The sample processing and extraction procedure, chromatographic and mass spectrometric conditions are provided below:
A 25 μL of study sample (DF was applied for few samples) or spiked plasma calibration standard was added to individual pre-labeled micro-centrifuge tubes followed by 100 μL of internal standard prepared in acetonitrile (Glipizide, 500 ng/mL) was added except for blank, where 100 μL of acetonitrile was added. Samples were vortexed for 5 minutes. Samples were centrifuged for 10 minutes at a speed of 4000 rpm at 4° C. Following centrifugation, 100 μL of clear supernatant was transferred in 96 well plates and analyzed using LC-MS/MS.
Non-Compartmental-Analysis tool of Phoenix WinNonlin® (Version 6.3) was used to assess the pharmacokinetic parameters. […]

Cn1c(=O)c2c(ncn2CC(=O)Nc2ccc(-c3ccccc3O)nn2)n(C)c1=O [Compound 1, 2-(1,3-dimethyl-2,6-dioxo-1,2,3,6-tetrahydro-7H-purin-7-yl)-N-(6-(2-hydroxyphenyl)pyridazin-3-yl)acetamide]
Clinical signs [1]: normal and without any clinical signs
IC50 (HEK293-STF3A cells): 9 nM
Vss relative to normal volume of total body water (0.7 L/kg) ([2]; IV 1 mg/kg): ~2 fold
Plasma concentration, individual animals ([2]; IV 1 mg/kg, 0.08 hr, 1 mg/kg): 1220.50 ng/mL and 2541.20 ng/mL and 2233.92 ng/mL
Plasma concentration, individual animals ([2]; IV 1 mg/kg, 0.25 hr, 1 mg/kg): 1052.34 ng/mL and 1048.27 ng/mL
Plasma concentration, individual animals ([2]; IV 1 mg/kg, 0.5 hr, 1 mg/kg): 899.26 ng/mL and 894.59 ng/mL
Plasma concentration, individual animals ([2]; IV 1 mg/kg, 1 hr, 1 mg/kg): 151.52 ng/mL and 496.44 ng/mL and 268.90 ng/mL
Plasma concentration, individual animals ([2]; IV 1 mg/kg, 2 hr, 1 mg/kg): 60.16 ng/mL and 49.49 ng/mL
Plasma concentration, individual animals ([2]; IV 1 mg/kg, 4 hr, 1 mg/kg): 37.94 ng/mL and 27.10 ng/mL
Plasma concentration, individual animals ([2]; IV 1 mg/kg, 8 hr, 1 mg/kg): 6.59 ng/mL and 27.95 ng/mL and 8.94 ng/mL
Plasma concentration, individual animals ([2]; IV 1 mg/kg, 24 hr, below LLOQ considered zero, 1 mg/kg): 1.36 ng/mL and 1.10 ng/mL and 0.00 ng/mL
CL (expressed as CLf) ([2]; PO 5 mg/kg): 26.74 mL/min/kg
Vss (expressed as Vz) ([2]; PO 5 mg/kg): 7.55 L/kg
Time up to which plasma concentrations were quantifiable ([2]; PO 5 mg/kg, 2 animals out of 3, LLOQ 1.02 ng/mL): up to 24 hr
Plasma concentration, individual animals ([2]; PO 5 mg/kg, 0.25 hr, 5 mg/kg): 2450.80 ng/mL and 1426.54 ng/mL
Plasma concentration, individual animals ([2]; PO 5 mg/kg, 0.5 hr, 5 mg/kg): 2167.46 ng/mL and 1898.77 ng/mL and 1070.15 ng/mL
Plasma concentration, individual animals ([2]; PO 5 mg/kg, 1 hr, 5 mg/kg): 474.33 ng/mL and 433.52 ng/mL
Plasma concentration, individual animals ([2]; PO 5 mg/kg, 2 hr, 5 mg/kg): 331.78 ng/mL and 365.08 ng/mL
Plasma concentration, individual animals ([2]; PO 5 mg/kg, 4 hr, 5 mg/kg): 86.92 ng/mL and 503.47 ng/mL and 59.61 ng/mL
Plasma concentration, individual animals ([2]; PO 5 mg/kg, 6 hr, 5 mg/kg): 110.77 ng/mL and 81.54 ng/mL
Plasma concentration, individual animals ([2]; PO 5 mg/kg, 8 hr, 5 mg/kg): 41.28 ng/mL and 53.22 ng/mL
Plasma concentration, individual animals ([2]; PO 5 mg/kg, 24 hr, below LLOQ considered zero, 5 mg/kg): 0.00 ng/mL and 1.28 ng/mL and 2.31 ng/mL
concentration at 0.08 hr ([2]; male, BALB/c, mouse, plasma, iv, 1 mg/kg, IV 1 mg/kg, 0.08 hr): 2000 ng/mL
concentration at 0.25 hr ([2]; male, BALB/c, mouse, plasma, iv, 1 mg/kg, IV 1 mg/kg, 0.25 hr, read-out: Plasma concentration, Mean): 1020 ng/mL
concentration at 0.25 hr ([2]; male, BALB/c, mouse, plasma, iv, 1 mg/kg, IV 1 mg/kg, 0.25 hr, read-out: Plasma concentration, individual animals): 948 ng/mL
concentration at 0.5 hr ([2]; male, BALB/c, mouse, plasma, iv, 1 mg/kg, IV 1 mg/kg, 0.5 hr, read-out: Plasma concentration, Mean): 915 ng/mL
concentration at 0.5 hr ([2]; male, BALB/c, mouse, plasma, iv, 1 mg/kg, IV 1 mg/kg, 0.5 hr, read-out: Plasma concentration, individual animals): 952 ng/mL
concentration at 1 hr ([2]; male, BALB/c, mouse, plasma, iv, 1 mg/kg, IV 1 mg/kg, 1 hr, read-out: Plasma concentration, Mean): 306 ng/mL
concentration at 2 hr ([2]; male, BALB/c, mouse, plasma, iv, 1 mg/kg, IV 1 mg/kg, 2 hr, read-out: Plasma concentration, Mean): 50.7 ng/mL

Reference: US11186581B2, “2-(1,3-dimethyl-2,6-dioxo-1,2,3,6-tetrahydro-7H-purin-7-yl)-N-(6-(2-hydroxyphenyl)pyridazin-3-yl)acetamide as a Wnt pathway modulator” (Agency for Science, Technology and Research, priority 2017, dated 2021)
